Assay results published in paper PMC6605100 (Peptide science (Hoboken, N.J.), 2018).

Experiments:
[1] = Peptide degradation assay in HeLa lysates, RP-HPLC; details: 30 μM peptide, HeLa lysates 2 mg/mL, 10 mM Tris-HCl pH 7.6, 37°C, HPLC UV 442 nm
[2] = tested on: HeLa cells

| Compound | time within which the peptide was mostly degraded [1] [min] | entry into intact cells (permeability) [2] |
| --- | --- | --- |
| N=C(N)NCCC[C@H](NC(=O)[C@H](CCCNC(=N)N)NC(=O)[C@H](CCCNC(=N)N)NC(=O)[C@H](CCC(N)=O)NC(=O)[C@H](CCCNC(=N)N)NC(=O)[C@H](CCCNC(=N)N)NC(=O)[C@H](CCCCN)NC(=O)[C@H](CCCCN)NC(=O)[C@H](CCCNC(=N)N)NC(=O)CNC(=O)[C@H](Cc1ccc(O)cc1)NC(=O)c1ccc2c(c1)C(=O)OC21c2ccc(O)cc2Oc2cc(O)ccc21)C(N)=O [TAT] | ≤ 30 | – |
| Ac-RWVKVpGOWIKQ-NH2 [WKWK] | – | found to enter intact HeLa cells |
